Results reported in PMC11111895, “Identification of a dCache-type chemoreceptor in Campylobacter jejuni that specifically mediates chemotaxis towards methyl pyruvate” (Frontiers in Microbiology, 2024).

Columns and labels:
[1] = target: Tlp11-LBD T320A; assay: MST of Tlp11-LBD mutant T320A; format: binding, C. jejuni ATCC 33560; conditions: max ligand 2.5 mM
Procedure: (§1) The His-tag dye (MO-L018 RED-tris-NTA, NanoTemper, Germany) was adjusted to a final concentration of 25 nM and used to label the purified protein with a His-tag. The compound was diluted to a series of concentrations in phosphate-buffered saline ([Duan et al., 2023]) with 0.05% Tween 20 (PBS-T) buffer and mixed in a ratio of 1:1 with protein. The mixtures were loaded into capillaries (Monolith™ Series capillaries, NanoTemper) by means of capillary action. Thermophoresis was measured using a Monolith™ NT.115 (NanoTemper) instrument, with 40% excitation and 40% MST power configuration. The time-traces of changes in fluorescence, which reflected the thermophoretic movement of labeled protein affected by different concentrations of compound were recorded, and the dose–response curves were fitted with the ‘temperature jump and thermophoresis’ mode. Data analysis was performed using MO. Affinity Analysis version 2.3 (NanoTemper) and Prism version 8.0.2 (GraphPad Software, United States).
(§2) In order to confirm the contribution of L264, N268, I276, Y291, V318, and T320 to the binding to methyl pyruvate, we generated Tlp11-LBD proteins with an alanine point mutation at individual residues, to obtain the mutant proteins L264A, N268A, I276A, Y291A, V318A, and T320A, and then analyzed the binding affinities of methyl pyruvate to these mutants using MST. […]

[2] = target: Tlp11-LBD Y291A; assay: MST of Tlp11-LBD mutant Y291A; format: binding, C. jejuni ATCC 33560; conditions: max ligand 2.5 mM
Procedure: as §1, §2

[3] = system: C. jejuni NCTC 11168ΩTlp11 cells; format: cell-based, Campylobacter jejuni; conditions: 11168ΩTlp11 cells; microfluidic device, 30 min
[4] = target: Tlp11-LBD homologue (WP_201459806.1, residues 32-332); assay: MST of Tlp11-LBD homologue; format: binding, Campylobacter coli; conditions: C. coli LBD
Procedure: as §1
To evaluate whether these potential Tlp11-LBD homologues could bind to methyl pyruvate, we conducted a structural analysis of the LBDs of six chemoreceptors from C. coli, H. equorum, H. himalayensis, H. mesocricetorum, H. ganmani, and C. upsaliensis using Alphafold 2. […]

[5] = target: Tlp11-LBD I276A; assay: MST of Tlp11-LBD mutant I276A; format: binding, C. jejuni ATCC 33560; conditions: max ligand 2.5 mM
Procedure: as §1, §2

COC(=O)C(C)=O [methyl pyruvate, Methyl pyruvate]
Kd (binding curve fit) [1]: unable to obtain fitted Kd values | Kd (binding curve fit) [2]: unable to obtain fitted Kd values | chemotactic response [3]: robust attractant response | Kd [4]: 1400 ± 500 µM | Kd (binding curve fit) [5]: unable to obtain fitted Kd values
